# According to patent US20160039742A1, “EXTRACTION OF TRAMADOL FROM NAUCLEA LATIFOLIA SMITH” ([…] FOURIER - GRENOBLE 1, priority 2013, published 2016):
# Marks after values point to notes of the source that are not given here.
# Tests used:
# formalin-induced pain = assay: Formaline-induced nociception (formalin test); type: in vivo, mice; conditions: 32 mg/kg p.o.
# Protocol: (§1) Experiments in mice were performed on C57BL/6 male mice (Janvier, Le-Genest-St-Isle, France) weighting 26-35 g, housed in individual cages with food and water ad libitum and kept in a 12 hours/12 hours light-dark cycle. All animal experimentations were carried out in accordance with the rules of the European Committee Council Directive of Nov. 24, 1986 (86/609/EEC) and all procedures were approved by the local department of the veterinarian services for the use and care of animals (agreement #380612). All efforts were made to minimize animal suffering and reduce the number of animals used in each series of experiments.
# The formalin test was carried out as described by Hunskaar and Hole (1987) with slight modifications. The negative control was treated with 0.9% NaCl. […] Other groups of mice were treated with methanolic fractions of Nauclea Latifolia (16, 40 or 80 mg/kg, p.o.), or purified tramadol isolated from Nauclea Latifolia (8, 16 and 32 mg/kg, p.o.). Pain was induced by injecting 50 μl of 2.5% formalin (40% formaldehyde in distilled water) in the right hind paw pad. […] The amount of time spent licking and biting the injected paw was indicative of pain and was recorded during the first 0-5 min (first phase), followed by the 15-30 min period (second phase). Data were analyzed by two-way Anova followed by Tukey's (HSD) multi-comparison test.
# [1] = system: acetic acid-induced abdominal constrictions in mice; assay: Acetic acid induced abdominal constriction (writhing) test; type: in vivo
# Protocol: as §1
# One hour after oral administration of these substances, each animal was injected i.p. with 0.6% acetic acid in a volume of 10 ml/kg body weight. After acetic acid injection, the number of stretching or writhing responses per animal was recorded during 30 min after a latency period of 5 min. Inhibition was expressed in percentage.
# Data were analyzed by two-way Anova followed by Tukey's (HSD) multi-comparison test.
# [2] = system: tail flick response in mice after immersion in 55° C. water bath; assay: Tail-flick test; type: in vivo
# Protocol: as §1
# The tail-flick test was carried out according to the method described by D'Amour and Smith. This involved immersing extreme 3 cm of the mice's tail in water bath containing water at a temperature of 55±0.5° C. […] The reaction time was recorded with a stopwatch. […] The reaction time of mice was taken at intervals of 15, 30 and 60 min after a latency period of 1 hour following the administration of the decoction and drugs.
# (§2) The protection percentage was calculated as the ratio (reaction time following tramadol administration−initial reaction time): initial reaction time.
# [3] = system: hotplate-induced pain in mice; assay: Hotplate test; type: in vivo
# Protocol: as §1
# The apparatus consisted of a water bath in which was placed a metallic cylinder (14 cm diameter×10 cm height). The hot plate was maintained at 55±0.5° C. Each mouse (six per group) acted as its own control. One hour before treatment, the reaction time of each mouse (liking of the forepaws or jumping response) was measured twice with a 10 min interval. The average of the two readings was obtained as the initial reaction time.
# as §2
# [4] = system: glutamate-induced nociception in mice; assay: Glutamate-induced nociception; type: in vivo
# Protocol: as §1
# Animals were treated with the purified tramadol isolated from Nauclea Latifolia (8, 16 or 32 mg/kg, p.o.), dipyrone (60 mg/kg, p.o.) or 0.9% NaCl (p.o.) 1 hour before test. A volume of 20 μl of glutamate (30 μmol/paw) was injected intraplantarly in the ventral surface of the right hind paw. Animals were observed individually for 15 min following glutamate injection. The amount of time they spent licking the injected paw was recorded with a chronometer and was considered as indicative of nociception. Data were analyzed by two-way Anova followed by Tukey's (HSD) multi-comparison test.
smiles,measurement,setting,value
"COc1cccc([C@]2(O)CCCC[C@H]2CN(C)C)c1 (racemic) [F27 of N. latifolia, (±)-cis-2-dimethylaminomethyl-1-(3-methoxyphenyl)cyclohexanol]","blockade of pain emanating from inflammation, second phase (15-30 min) of formalin test",formalin-induced pain,31.74%
same,"neurogenic-induced pain blockade, first phase (0-5 min) of formalin test",formalin-induced pain,64.07%
same,counter effect of naloxone on acetic acid-induced writhing,[1]; FIG. 4,absence of counter effect of naloxone
same,bioactivity of HPLC fractions in the writhing test,"[1]; HPLC fractions of root bark extract, writhing test",peak of activity
same,"mean ID50 (95% confidence limits), acetic acid-induced abdominal constrictions",[1]; oral administration,14.13 (5.53-41.88) mg/kg
same,Protection agains thermal nociception (%),"[2]; 8 mg/kg p.o., 15 min",7.7%
same,Protection agains thermal nociception (%),"[2]; 8 mg/kg p.o., 30 min",14.4* %
same,Protection agains thermal nociception (%),"[2]; 8 mg/kg p.o., 60 min",21.4* %
same,Protection agains thermal nociception (%),"[2]; 16 mg/kg p.o., 15 min",5.6%
same,Protection agains thermal nociception (%),"[2]; 16 mg/kg p.o., 30 min",34.3** %
same,Protection agains thermal nociception (%),"[2]; 16 mg/kg p.o., 60 min",42.9*** %
same,reduction of painful sensation due to tail immersion in warm water,"[2]; 32 mg/kg oral, after a latency period of 30 min",63.05%
same,Protection agains thermal nociception (%),"[2]; 32 mg/kg p.o., 15 min",18.7%
same,Protection agains thermal nociception (%),"[2]; 32 mg/kg p.o., 30 min",63.0*** %
same,dose dependence of reduction of painful sensation in tail immersion,"[2]; mouse, in vivo",dose-dependent
same,effect of naloxone on analgesic activity in tail-flick test,"[2]; mouse, in vivo",blocked by naloxone
same,Protection against thermal nociception (%),"[3]; 8 mg/kg p.o., 0.5 hr",−2.2%
same,Protection against thermal nociception (%),"[3]; 8 mg/kg p.o., 1 hr",22.9%
same,Protection against thermal nociception (%),"[3]; 8 mg/kg p.o., 2 hrs",20.2* %
same,Protection against thermal nociception (%),"[3]; 8 mg/kg p.o., 3 hrs",50.6** %
same,Protection against thermal nociception (%),"[3]; 8 mg/kg p.o., 4 hrs",4.6%
same,Protection against thermal nociception (%),"[3]; 8 mg/kg p.o., 5 hrs",−0.2%
same,Protection against thermal nociception (%),"[3]; 8 mg/kg p.o., 6 hrs",−0.5%
same,Protection against thermal nociception (%),"[3]; 16 mg/kg p.o., 0.5 hr",1.9%
same,Protection against thermal nociception (%),"[3]; 16 mg/kg p.o., 1 hr",27.0* %
same,Protection against thermal nociception (%),"[3]; 16 mg/kg p.o., 2 hrs",21.3* %
same,Protection against thermal nociception (%),"[3]; 16 mg/kg p.o., 3 hrs",52.4** %
same,Protection against thermal nociception (%),"[3]; 16 mg/kg p.o., 4 hrs",6.5%
same,Protection against thermal nociception (%),"[3]; 16 mg/kg p.o., 5 hrs",−2.0%
same,Protection against thermal nociception (%),"[3]; 16 mg/kg p.o., 6 hrs",4.6%
same,Protection against thermal nociception (%),"[3]; 32 mg/kg p.o., 0.5 hr",1.9%
same,Protection against thermal nociception (%),"[3]; 32 mg/kg p.o., 1 hr",45.2** %
same,Protection against thermal nociception (%),"[3]; 32 mg/kg p.o., 2 hrs",50.9** %
same,Protection against thermal nociception (%),"[3]; 32 mg/kg p.o., 3 hrs",71.9*** %
same,Protection against thermal nociception (%),"[3]; 32 mg/kg p.o., 4 hrs",25.2* %
same,Protection against thermal nociception (%),"[3]; 32 mg/kg p.o., 5 hrs",21.3* %
same,Protection against thermal nociception (%),"[3]; 32 mg/kg p.o., 6 hrs",27.8* %
same,time at which increase in latency response reached maximal level,"[3]; 32 mg/kg, oral administration",3 h
same,effect of naloxone on antinociceptive effect in hot plate assay,"[3]; mouse, in vivo",Naloxone antagonized antinociceptive effect
same,antinociception in glutamate-induced nociception,"[4]; 8, 16 or 32 mg/kg, p.o.",marked and dose-related antinociception
same,"mean ID50 (95% confidence limits), glutamate-induced nociception","[4]; p.o., 1 hour before test",21.17 (6.49-47.23)
"CC(=O)Oc1ccccc1C(=O)O [Aspirin, reference compound]",Acetic acid-induced writhing inhibition (%),[1]; 150 mg/kg p.o.,52.9%
same,Protection agains thermal nociception (%),"[2]; 150 mg/kg p.o., 15 min",6.4%
same,Protection agains thermal nociception (%),"[2]; 150 mg/kg p.o., 30 min",9.5%
same,Protection agains thermal nociception (%),"[2]; 150 mg/kg p.o., 60 min",7.1%
same,Protection against thermal nociception (%),"[3]; 150 mg/kg p.o., 0.5 hr",1.7%
same,Protection against thermal nociception (%),"[3]; 150 mg/kg p.o., 1 hr",35.5* %
same,Protection against thermal nociception (%),"[3]; 150 mg/kg p.o., 2 hrs",2.2* %
same,Protection against thermal nociception (%),"[3]; 150 mg/kg p.o., 3 hrs",39.5* %
same,Protection against thermal nociception (%),"[3]; 150 mg/kg p.o., 4 hrs",8.5%
same,Protection against thermal nociception (%),"[3]; 150 mg/kg p.o., 5 hrs",10.6%
same,Protection against thermal nociception (%),"[3]; 150 mg/kg p.o., 6 hrs",3.5%
"CN1CC[C@]23c4c5ccc(O)c4O[C@H]2[C@@H](O)C=C[C@H]3[C@H]1C5 [Morphine, reference compound]",Protection agains thermal nociception (%),"[2]; 5 mg/kg s.c., 15 min",27.3%
same,Protection agains thermal nociception (%),"[2]; 5 mg/kg s.c., 30 min",62.1*** %
same,Protection agains thermal nociception (%),"[2]; 5 mg/kg s.c., 60 min",77.8*** %
same,Protection against thermal nociception (%),"[3]; 5 mg/kg s.c., 0.5 hr",7.4%
same,Protection against thermal nociception (%),"[3]; 5 mg/kg s.c., 1 hr",44.4** %
same,Protection against thermal nociception (%),"[3]; 5 mg/kg s.c., 2 hrs",46.8** %
same,Protection against thermal nociception (%),"[3]; 5 mg/kg s.c., 3 hrs",40.4** %
same,Protection against thermal nociception (%),"[3]; 5 mg/kg s.c., 4 hrs",43.6** %
same,Protection against thermal nociception (%),"[3]; 5 mg/kg s.c., 5 hrs",24.6* %
same,Protection against thermal nociception (%),"[3]; 5 mg/kg s.c., 6 hrs",17.1%
"Cc1c(N(C)CS(=O)(=O)[O-])c(=O)n(-c2ccccc2)n1C.[Na+] [dipyrone, reference compound]",inhibition of glutamate-induced nociception,"[4]; dipyrone (60 mg/kg, p.o.)",70.30%
